Data on eleven compounds can be found in ChEMBL document CHEMBL1133302, “Use of proline bioisosteres in potential HIV protease inhibitors: phenylalanine-2-thiophenoxy-3-pyrrolidinone: synthesis and anti-HIV evaluation” (Bioorg Med Chem Lett, 2000).

Usually EC50 stands for the midpoint of the concentration-response curve. A low value points to a more potent agent. In general, IC50 refers to the concentration that gives 50% inhibition. Lower therefore signals higher potency. What is called CC50 is the concentration that lowers cell viability or growth by half. Low values mean greater toxicity to the cells, high ones lower toxicity to the cells.

The test system of assay [1] is MT4. Put plainly: EC50 value was measured as concentration required to inhibit syncytia formation by 50% in MT-4 cells. The class given is functional, cell-based. The following applies: Homo sapiens.
Assay [2] has as its target T1, Human immunodeficiency virus type 1 protease (Human immunodeficiency virus 1, UniProt Q72874). Put plainly: Compound was evaluated for the inhibition of HIV-1 protease.
Assay [3] in a line: Selective index is the ratio of CC50 to that of EC50 (CC50/EC50). The class given is functional.
The test system of assay [4] is MT4. Put plainly: CC50 value was measured as concentration required to cause 50% death of uninfected MT-4 cells. The class given is functional. As to conditions: Homo sapiens; call rule not given here.
Assay [5] has as its target T1, Human immunodeficiency virus type 1 protease. The assay can be described thus: Compound was evaluated for the inhibition of HIV-1 protease; NA-Nonactive at nontoxic concentration.
The subject of assay [6] is MT4. The assay can be described thus: EC50 value was measured as concentration required to inhibit syncytia formation by 50% in MT-4 cells; NA-Nonactive at nontoxic concentration. The class given is functional, cell-based, Homo sapiens.

A value given as a limit tells only on which side of the number the result lay.

`CC(C)(C)OC(=O)N[C@@H](Cc1ccccc1)C(=O)N1CCC(=O)[C@@H]1Sc1ccccc1` returned an EC50 in the assay on MT4 [1] of 50 µM. Also, the midpoint of inhibition in assay [2], the IC50, lay at 1 µM. For the same compound, the SI in assay [3] stood at 2. Besides, the midpoint of cytotoxicity with MT4 [4], the CC50, lay at 100 µM.
For the compound `CC(C)(C)OC(=O)NC(Cc1ccccc1)C(=O)N1CCC(=O)C1Sc1ccccc1` (racemic), in assay [5], the IC50 entry is reported as “Not Active”. Besides, in the assay with MT4 [6], the EC50 result is “Not Active”. Moreover, the CC50 in the assay on MT4 [4] is more than 100 µM.
In the assay on MT4 [1], `O=C(N[C@@H](Cc1ccccc1)C(=O)N1CCC(=O)C1Sc1ccccc1)c1cccnc1` (some centres undefined) returned an EC50 of 1 µM. The compound further had an IC50 in assay [2] of 0.1 µM. Further, the SI in assay [3] is 50. Moreover, in the assay on MT4 [4], the CC50 amounted to 50 µM.
For `CC(C)(C)OC(=O)N[C@@H](Cc1ccccc1)C(=O)N1CCC(=O)[C@H]1Sc1ccccc1` the same measures were 1 µM, 0.008 µM, more than 100 and more than 100 µM.
The matching figures for `CC(C)(C)OC(=O)N[C@@H](Cc1ccc(O)cc1)C(=O)N1CCC(=O)[C@@H]1Sc1ccccc1`: 50 µM, 0.025 µM, more than 2 and more than 100 µM.
The matching figures for `CC(C)(C)OC(=O)N[C@@H](Cc1ccc(OCc2ccccc2)cc1)C(=O)N1CCC(=O)[C@H]1Sc1ccccc1`: 0.1 µM, 0.02 µM, 500 and 50 µM.
In assay [2], `O=C(N[C@@H](Cc1ccccc1)C(=O)N1CCC(=O)C1Sc1ccccc1)c1ccc2ccccc2n1` (some centres undefined) came in with an IC50 of 5 µM. In the assay on MT4 [6], the EC50 result is “Not Active”. This compound returned a CC50 in the assay on MT4 [4] of 50 µM.
The matching figures for `CC(C)(C)OC(=O)N[C@@H](Cc1ccc(OCc2ccccc2)cc1)C(=O)N1CCC(=O)[C@@H]1Sc1ccccc1`: 0.02 µM, “Not Active” and 10 µM.
`CC(C)(C)OC(=O)N[C@@H](Cc1ccc(O)cc1)C(=O)N1CCC(=O)[C@H]1Sc1ccccc1`: in the assay on MT4 [1], the EC50 came to 0.1 µM. In assay [2], the IC50 is 0.026 µM. Besides, in assay [3], the SI came out at 500. Further, the midpoint of cytotoxicity with MT4 [4], the CC50, lay at 50 µM.
With `COc1ccc(C[C@H](NC(=O)OC(C)(C)C)C(=O)N2CCC(=O)[C@@H]2Sc2ccccc2)cc1`, in assay [2], the midpoint of inhibition, the IC50, lay at 10 µM. Moreover, in the assay with MT4 [6], the EC50 result is “Not Active”. For the same compound, the CC50 in the assay with MT4 [4] was more than 100 µM.
For `COc1ccc(C[C@H](NC(=O)OC(C)(C)C)C(=O)N2CCC(=O)[C@H]2Sc2ccccc2)cc1`, in assay [2], the IC50 was 10 µM. In addition, the EC50 entry with MT4 [6] is listed as “Not Active”. Half-maximal cytotoxicity in the assay with MT4 [4] (CC50) was put at 50 µM.
